Measurements from PubChem BioAssay AID256 (DTP/NCI, 2004).
Several values for one entry are separate records, joined by “and”; a condition that tells them apart may be missing. Equal entries are not always repeated. Toxic doses and inconclusive results are not listed. How the source made its calls: active means survival T/C of 150% or more; inactive means T/C below 125% in these data.

System: CD2F1 mice, L1210 leukemia ip, survival T/C
Experiment: NCI In Vivo Anticancer Drug Screen. Data for tumor model L1210 Leukemia (intraperitoneal) in CD2F1 (CDF1) mice
Settings: higher = longer survival
Outline: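 Read-out first: treated-group measurement over vehicle-control measurement, expressed as a ratio. Animals bore a transplanted tumor line and were dosed with compound or vehicle.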

[1] = endpoint: mean survival time, dose: 12.5 mg/kg/injection, schedule: Q01DX005 (ip), vehicle: water
[2] = endpoint: mean survival time, dose: 25.0 mg/kg/injection, schedule: Q01DX005 (ip), vehicle: water
[3] = endpoint: mean survival time, dose: 50.0 mg/kg/injection, schedule: Q01DX005 (ip), vehicle: water
[4] = endpoint: mean survival time, dose: 100.0 mg/kg/injection, schedule: Q01DX005 (ip), vehicle: water
[5] = endpoint: mean survival time, dose: 200.0 mg/kg/injection, schedule: Q01DX005 (ip), vehicle: water
[6] = endpoint: mean survival time, dose: 100.0 mg/kg/injection, schedule: Q01DX001 (ip), vehicle: saline
[7] = endpoint: mean survival time, dose: 200.0 mg/kg/injection, schedule: Q01DX001 (ip), vehicle: saline
[8] = endpoint: mean survival time, dose: 400.0 mg/kg/injection, schedule: Q01DX001 (ip), vehicle: saline
[9] = endpoint: mean survival time, dose: 50.0 mg/kg/injection, schedule: Q04DX003 (ip), vehicle: saline
[10] = endpoint: mean survival time, dose: 100.0 mg/kg/injection, schedule: Q04DX003 (ip), vehicle: saline
[11] = endpoint: mean survival time, dose: 200.0 mg/kg/injection, schedule: Q04DX003 (ip), vehicle: saline
[12] = endpoint: mean survival time, dose: 100.0 mg/kg/injection, schedule: Q04DX003 (ip), vehicle: saline with Tween-80
[13] = endpoint: mean survival time, dose: 100.0 mg/kg/injection, schedule: Q01DX001 (ip), vehicle: saline with Tween-80
[14] = endpoint: mean survival time, dose: 200.0 mg/kg/injection, schedule: Q01DX001 (ip), vehicle: saline with Tween-80
[15] = endpoint: mean survival time, dose: 400.0 mg/kg/injection, schedule: Q01DX001 (ip), vehicle: saline with Tween-80
[16] = endpoint: mean survival time, dose: 200.0 mg/kg/injection, schedule: Q04DX003 (ip), vehicle: saline with Tween-80
[17] = endpoint: mean survival time, dose: 400.0 mg/kg/injection, schedule: Q04DX003 (ip), vehicle: saline with Tween-80
[18] = endpoint: mean survival time, dose: 75.0 mg/kg/injection, schedule: Q01DX001 (ip), vehicle: saline
[19] = endpoint: mean survival time, dose: 150.0 mg/kg/injection, schedule: Q01DX001 (ip), vehicle: saline
[20] = endpoint: mean survival time, dose: 300.0 mg/kg/injection, schedule: Q01DX001 (ip), vehicle: saline
[21] = endpoint: mean survival time, dose: 25.0 mg/kg/injection, schedule: Q01DX009 (ip), vehicle: saline with Tween-80
[22] = endpoint: mean survival time, dose: 50.0 mg/kg/injection, schedule: Q01DX009 (ip), vehicle: saline with Tween-80
[23] = endpoint: mean survival time, dose: 100.0 mg/kg/injection, schedule: Q01DX009 (ip), vehicle: saline with Tween-80
[24] = endpoint: mean survival time, dose: 200.0 mg/kg/injection, schedule: Q01DX009 (ip), vehicle: saline with Tween-80
[25] = endpoint: mean survival time, dose: 400.0 mg/kg/injection, schedule: Q01DX009 (ip), vehicle: saline with Tween-80

Measured: T/C

CN(C)Cc1cn(C2CC(O)C(CO)O2)c(=O)[nH]c1=O (configuration not stated)
inactive: [1] 101 % of control | [2] 98 % of control | [3] 104 % of control | [4] 106 % of control | [5] 104 % of control

COC(=O)C12OCC34C(CC5C(C)C6=CC(=O)OC6=CC5(C)C3C(O)C1O)OC(=O)C(O)C24 (configuration not stated)
inactive: endpoint: median survival time, dose: 0.25 mg/kg/injection, schedule: Q01DX005 (ip), vehicle: Klucel (hydroxypropylcellulose) (HPC) 112 % of control | endpoint: median survival time, dose: 0.5 mg/kg/injection, schedule: Q01DX005 (ip), vehicle: Klucel (hydroxypropylcellulose) (HPC) 114 % of control

COC1=C(OC)C(=O)C(N(C)C)=C(CO)C1=O
inactive: endpoint: median survival time, dose: 15.0 mg/kg/injection, schedule: Q01DX005 (ip), vehicle: saline 102 % of control | endpoint: median survival time, dose: 30.0 mg/kg/injection, schedule: Q01DX005 (ip), vehicle: saline 100 % of control | endpoint: median survival time, dose: 60.0 mg/kg/injection, schedule: Q01DX005 (ip), vehicle: saline 103 % of control | endpoint: median survival time, dose: 120.0 mg/kg/injection, schedule: Q01DX005 (ip), vehicle: saline 107 % of control

CNC(=O)c1cccc2ccccc12
inactive: endpoint: mean survival time, dose: 50.0 mg/kg/injection, schedule: Q01DX001 (ip), vehicle: saline 103 % of control | [6] 100 % of control | [7] 97 % of control | [8] 95 % of control

CCOC(=O)C(F)(C(=O)OCC)[N+](=O)[O-]
inactive: [9] 102 % of control | [6] 101 % of control | [10] 100 % of control | [7] 104 % of control | [11] 88 % of control

CC1CC[N-]CC1.CC1CC[N-]CC1.CS(C)=O.[Cl][Rh]([Cl])[Cl]
inactive: [12] 96 % of control

O.[Cl][Pt].[NH-]CC[S-]
inactive: endpoint: mean survival time, dose: 12.5 mg/kg/injection, schedule: Q04DX003 (ip), vehicle: distilled water + Tween-80 90 % of control | endpoint: mean survival time, dose: 25.0 mg/kg/injection, schedule: Q04DX003 (ip), vehicle: distilled water + Tween-80 102 % of control | endpoint: mean survival time, dose: 50.0 mg/kg/injection, schedule: Q04DX003 (ip), vehicle: distilled water + Tween-80 95 % of control | endpoint: mean survival time, dose: 100.0 mg/kg/injection, schedule: Q04DX003 (ip), vehicle: distilled water + Tween-80 100 % of control

O=C1CCC(Cl)S(=O)(=O)c2ccccc21 (configuration not stated)
inactive: [13] 97 % of control | [14] 105 % of control | [15] 94 % of control

CC(C)O.CC(C)O.CC(C)O.[La]
inactive: [10] 97 % of control | [11] 87 % of control | endpoint: mean survival time, dose: 400.0 mg/kg/injection, schedule: Q04DX003 (ip), vehicle: saline 89 % of control

CCOC(=O)C(Cc1cccc2ccccc12)P(=O)(OCC)OCC (configuration not stated)
inactive: [6] 108 % of control | [7] 108 % of control | [8] 106 % of control

CC1=CC(c2ccccc2)(c2ccccc2)c2ccccc21
inactive: [13] 104 % of control | [14] 91 % of control

Cn1c(-[n+]2ccccc2)nc2c1c(=O)[nH]c(=O)n2C
inactive: [1] 100 % of control | [2] 102 % of control | [3] 97 % of control | [4] 94 % of control | [5] 102 % of control

Cc1c(Cl)cccc1NS(=O)(=O)c1cccc([N+](=O)[O-])c1
inactive: [12] 88 % of control | [16] 92 % of control | [17] 86 % of control

CC(=O)Nc1ccc(C(=O)C=P(c2ccccc2)(c2ccccc2)c2ccccc2)cc1
inactive: [6] 101 % of control | [7] 97 % of control | [8] 97 % of control

C/C(=N\n1cc(-c2ccccc2)nc1N)c1ccccc1
inactive: [18] 91 % of control | [19] 97 % of control | [20] 93 % of control

CCC(CC)N=C(N)N
inactive: [21] 100 % of control | endpoint: mean survival time, dose: 25.0 mg/kg/injection, schedule: Q04DX003 (ip), vehicle: saline 100 % of control | [22] 93 % of control | [9] 97 % of control | [23] 98 % of control | [10] 94 % of control

N#CCC(=O)O
inactive: endpoint: mean survival time, dose: 37.5 mg/kg/injection, schedule: Q04DX003 (ip), vehicle: saline 100 % of control | endpoint: mean survival time, dose: 75.0 mg/kg/injection, schedule: Q04DX003 (ip), vehicle: saline 100 % of control

CCOC(=O)c1cn(C)c2c1C(O)=C(C(=O)OC)CC(=O)N2
inactive: endpoint: median survival time, dose: 25.0 mg/kg/injection, schedule: Q01DX009 (ip), vehicle: saline with Tween-80 90 % of control | endpoint: median survival time, dose: 50.0 mg/kg/injection, schedule: Q01DX009 (ip), vehicle: saline with Tween-80 98 % of control | endpoint: median survival time, dose: 100.0 mg/kg/injection, schedule: Q01DX009 (ip), vehicle: saline with Tween-80 92 % of control | endpoint: median survival time, dose: 200.0 mg/kg/injection, schedule: Q01DX009 (ip), vehicle: saline with Tween-80 94 % of control | endpoint: median survival time, dose: 400.0 mg/kg/injection, schedule: Q01DX009 (ip), vehicle: saline with Tween-80 90 % of control

CCCCCCCN=NC
inactive: endpoint: mean survival time, dose: 75.0 mg/kg/injection, schedule: Q01DX001 (ip), vehicle: other 96 % of control | endpoint: mean survival time, dose: 150.0 mg/kg/injection, schedule: Q01DX001 (ip), vehicle: other 100 % of control | endpoint: mean survival time, dose: 300.0 mg/kg/injection, schedule: Q01DX001 (ip), vehicle: other 93 % of control

Clc1ccccc1/C=N/N=C/c1ccccc1Cl
inactive: [13] 91 % of control | [14] 90 % of control | [15] 89 % of control

O=[N+]([O-])c1cccc(SNc2cccc(Cl)c2)c1
inactive: [21] 102 % of control | [22] 90 % of control | [23] 94 % of control

c1ccc(N/N=C(/N=Nc2ccc(-c3ccc(N=N/C(=N/Nc4ccccc4)c4ccccc4)cc3)cc2)c2ccccc2)cc1
inactive: [22] 97 % of control | [23] 97 % of control | [24] 102 % of control

FC(F)(F)C(F)(F)CI
inactive: [13] 105 % of control | [14] 98 % of control | [15] 94 % of control

CC(C)C1=CC23CCC4C(C)(C(=O)O)CCCC4(C)C2CC13 (configuration not stated)
inactive: [12] 103 % of control | [16] 97 % of control | [17] 97 % of control

CCCC/C=C/C(=O)O
inactive: [22] 98 % of control | [23] 98 % of control | [24] 102 % of control

Nc1cccc(CC(=O)Nc2cccc(S(=O)(=O)F)c2)c1
inactive: [13] 96 % of control | [14] 95 % of control | [15] 90 % of control

Cc1ccc(S(=O)(=O)N(CCC(=O)O)c2ccccc2)cc1
inactive: [12] 101 % of control | [16] 97 % of control | [17] 98 % of control

O=C1C=C(NS(=O)(=O)c2ccccc2)C(=O)c2ccccc21
inactive: [23] 101 % of control | [12] 101 % of control | [24] 97 % of control | [16] 95 % of control | [25] 97 % of control | [17] 89 % of control

O=C1C(c2ccccc2)CN1C1CCCCC1 (configuration not stated)
inactive: [6] 104 % of control | [7] 101 % of control | [8] 87 % of control

CCCCCCCCCCCCCCCC(=O)NCC[N+](C)(C)C
inactive: [18] 107 % of control | [19] 104 % of control | [20] 104 % of control

CC(=O)Nc1nc(C)c(CC/C=C/c2ccc([N+](=O)[O-])cc2)c(Cl)n1
inactive: [13] 94 % of control | [14] 89 % of control | [15] 89 % of control

CC1[N-]CCC[N-]CCC[N-]C(C)C2CCCC1[N-]2.[Ni+2].[O-][Cl+3]([O-])([O-])O (configuration not stated)
inactive: endpoint: mean survival time, dose: 50.0 mg/kg/injection, schedule: Q04DX002 (ip), vehicle: saline with Tween-80 104 % of control | endpoint: mean survival time, dose: 100.0 mg/kg/injection, schedule: Q04DX002 (ip), vehicle: saline with Tween-80 101 % of control and 104 % of control | endpoint: mean survival time, dose: 200.0 mg/kg/injection, schedule: Q04DX002 (ip), vehicle: saline with Tween-80 93 % of control

COC(=O)C1=C(N)CCc2ccccc21
inactive: [23] 91 % of control | [24] 96 % of control | [25] 96 % of control

NC(=S)N/N=C/c1ccc(-c2ccccc2)cc1
inactive: [12] 97 % of control

CCC(=O)/C(=C\c1ccccc1Cl)C(C)=O
inactive: [23] 100 % of control | [24] 97 % of control

CCN(CC)CCCC(C)NS(=O)(=O)c1cccc2c(N(C)C)cccc12 (configuration not stated)
inactive: endpoint: mean survival time, dose: 25.0 mg/kg/injection, schedule: Q01DX009 (ip), vehicle: water 102 % of control | endpoint: mean survival time, dose: 50.0 mg/kg/injection, schedule: Q01DX009 (ip), vehicle: water 98 % of control | endpoint: mean survival time, dose: 100.0 mg/kg/injection, schedule: Q01DX009 (ip), vehicle: water 96 % of control
